In EP0655439A2, “5,6-Bicyclic glycoprotein IIb IIIa antagonists useful in inhibition of platelet aggregation” (ELI LILLY AND COMPANY, priority 1993, dated 1995):

Columns and labels:
GPIIb-IIIa = molecular target: T1, GPIIb-IIIa (Homo sapiens, UniProt P05106+P08514); assay: GPIIb-IIIa ELISA assay (inhibition of fibrinogen binding to immobilized receptor); details: purified platelet GPIIb-IIIa coated on plates; biotinylated fibrinogen 10 nM; 3 hours at 25 °C
T1 construct: Purified platelet GPIIb-IIIa receptor was prepared as described by Fitzgerald, L.A., et al; from tissue; host or cells: platelets (purified by the method of Fitzgerald et al., Anal Biochem 1985)
Protocol: In the following assay, GPllb-Illa is prepared in purified form, by a method such as described by Fitzgerald, L.A., et al., Anal Biochem (1985) 151:159-177,(the disclosure of which is incorporated herein by reference). GPIIb-IIIa is coated onto microtiter plates. The coated support is then contacted with fibrinogen and with the test material and incubated for a sufficient time to permit maximal binding of fibrinogen to the immobilized GPIIb-IIIa. Fibrinogen is typically provided at a concentration of about 5-50 nM and the test material can, if desired, be added at a series of dilution. Typical incubations are 2-4 hr at 25°C, the time and temperature being interdependent.
After incubation, the solution containing the fibrinogen and test material is removed and the level of binding of fibrinogen measured by quantitating bound fibrinogen to GPllb-llla. Any suitable means of detection may be used, but it is convenient to employ labeled fibrinogen, for example using biotinylated labels. Such methods are well known in the art.
Purified platelet GPIIb-IIIa receptor was prepared as described by Fitzgerald, L.A., et al., Anal Biochem (1985) 151:169-177. Vitronectin receptor was prepared as described by Smith, J.W., J. Bioi Chem (1988) 263:18726-18731. After purification, the receptors were stored in 0.1% Triton X-100 at 0.1-1.0 mg/ml.
The receptors were coated to the wells of 96-well flat-bottom ELISA plates (Linbro EIA-Plus microtiter plate, Flow Laboratories) after diluting 1:200 with a solution of 20 mM Tris-HCI, 150 MM NaCi, 1 mM CaCl2, pH 7.4, to reduce the Triton x-100 concentration to below its critical micellar concentration and adding an aliquot of 100 ul to each well. The wells were all allowed to incubate overnight at 4°C, and then aspirated to dryness. Additional sites were blocked by the addition of bovine serum albumin (BSA) at 35 mg/ml in the above buffer for 2 hours at 30°C to prevent nonspecific binding. The wells were then washed once with binding buffer ([…] Tris-HCI, 100 mM Nacl 2 mM CaC12, 1 mg/ml BSA).
The corresponding ligands (fibrinogen, von Willebrand Factor, orvitronectin) were conjugated to biotin using commercially available reagents and standard protocols. The labeled ligands were added to the receptor- coated wells at final concentration of 10 nM (100 ul/well) and incubated for 3 hours at 25 °C in the presence or absence of the test samples. After incubation, the wells are aspirated to dryness and bound ligand is quan- titated.
The bound protein is detected by the addition of antibiotin antibody conjugated to alkaline phosphatase followed by addition of substrate (p-nitrcphenyl phosphate), and determination of the optical density of each well at 405 nM. Decreased color development is observed in wells incubated with test samples which inhibit binding of ligand to receptor.

[1] = system: human platelet-rich plasma; assay: Platelet aggregation assay (PRP), Aggregation-Human/PRP/ADP; assay type: cell-based; details: 1 min, 1 minute at 37°C before aggregating agent, most often ADP 5 µM
Protocol: In addition to the ELISA GPllb-Illa assay previously described the Aggregation-Human/PRP/ADP Assay is useful for evaluating therapeutic compounds.
Platelet-rich plasma was prepared from healthy human volunteers for use in determining inhibition of platelet aggregation by the compounds. Blood was collected via a 21 gauge butterfly cannula, using a two-syringe technique into 1/10 volume of 10% trisodium citrate.
Platelet-rich plasma was prepared at room temperature by centrifugation of the citrated whole blood at 100 x g for 15 minutes. The platelet rich plasma contained approximately 200-400,000 platelets/µl.
Platelet-poor plasma was prepared by centrifugation of citrated whole blood at 12,000 x g for 2 minutes.
Platelet aggregation was assayed in a 4-channel platelet aggregation profiler (PAP-4, Biodata, Hatboro, PA) according to the manufacturers directions. Inhibition of platelet aggregation was studied by adding varying amounts of test compounds to stirred human platelet-rich plasma. Specifically, the human platelet-rich plasma was incubated with test compounds for 1 minute at 37°C prior to the addition of a variety of aggregating agents most often ADP 5 µM, but also 1 µg/ml collagen, 1 µM U46619 or 1 µM platelet activating factor.

T1 sequence (P08514 32-887 limits assumed): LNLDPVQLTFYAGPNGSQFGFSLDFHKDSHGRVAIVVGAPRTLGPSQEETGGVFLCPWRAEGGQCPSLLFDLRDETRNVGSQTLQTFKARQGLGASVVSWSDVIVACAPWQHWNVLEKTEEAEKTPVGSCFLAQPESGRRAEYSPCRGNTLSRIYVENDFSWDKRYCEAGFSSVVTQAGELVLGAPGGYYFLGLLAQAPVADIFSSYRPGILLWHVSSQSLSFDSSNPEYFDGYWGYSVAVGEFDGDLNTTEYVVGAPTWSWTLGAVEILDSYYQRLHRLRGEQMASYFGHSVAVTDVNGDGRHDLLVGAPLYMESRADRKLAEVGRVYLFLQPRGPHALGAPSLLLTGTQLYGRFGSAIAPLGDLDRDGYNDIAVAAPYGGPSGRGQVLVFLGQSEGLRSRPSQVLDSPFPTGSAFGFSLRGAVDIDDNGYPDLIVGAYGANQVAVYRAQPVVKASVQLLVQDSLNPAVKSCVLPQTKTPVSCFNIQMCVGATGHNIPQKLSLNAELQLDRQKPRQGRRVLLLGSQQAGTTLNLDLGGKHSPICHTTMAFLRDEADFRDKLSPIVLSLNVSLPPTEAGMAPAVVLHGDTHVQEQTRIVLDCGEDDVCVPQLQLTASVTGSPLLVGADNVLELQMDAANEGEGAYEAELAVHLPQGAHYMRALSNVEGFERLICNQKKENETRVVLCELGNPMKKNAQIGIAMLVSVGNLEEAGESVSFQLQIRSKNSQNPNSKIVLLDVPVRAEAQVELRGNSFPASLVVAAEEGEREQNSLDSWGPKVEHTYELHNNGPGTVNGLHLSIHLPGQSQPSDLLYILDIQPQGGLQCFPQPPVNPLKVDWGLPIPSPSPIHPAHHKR
T1 sequence (P08514 891-1039 partner limits assumed): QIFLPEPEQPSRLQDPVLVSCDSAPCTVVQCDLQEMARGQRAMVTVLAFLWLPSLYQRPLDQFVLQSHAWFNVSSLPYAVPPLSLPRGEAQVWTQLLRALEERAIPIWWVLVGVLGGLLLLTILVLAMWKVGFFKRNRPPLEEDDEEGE
T1 sequence (P05106 27-788): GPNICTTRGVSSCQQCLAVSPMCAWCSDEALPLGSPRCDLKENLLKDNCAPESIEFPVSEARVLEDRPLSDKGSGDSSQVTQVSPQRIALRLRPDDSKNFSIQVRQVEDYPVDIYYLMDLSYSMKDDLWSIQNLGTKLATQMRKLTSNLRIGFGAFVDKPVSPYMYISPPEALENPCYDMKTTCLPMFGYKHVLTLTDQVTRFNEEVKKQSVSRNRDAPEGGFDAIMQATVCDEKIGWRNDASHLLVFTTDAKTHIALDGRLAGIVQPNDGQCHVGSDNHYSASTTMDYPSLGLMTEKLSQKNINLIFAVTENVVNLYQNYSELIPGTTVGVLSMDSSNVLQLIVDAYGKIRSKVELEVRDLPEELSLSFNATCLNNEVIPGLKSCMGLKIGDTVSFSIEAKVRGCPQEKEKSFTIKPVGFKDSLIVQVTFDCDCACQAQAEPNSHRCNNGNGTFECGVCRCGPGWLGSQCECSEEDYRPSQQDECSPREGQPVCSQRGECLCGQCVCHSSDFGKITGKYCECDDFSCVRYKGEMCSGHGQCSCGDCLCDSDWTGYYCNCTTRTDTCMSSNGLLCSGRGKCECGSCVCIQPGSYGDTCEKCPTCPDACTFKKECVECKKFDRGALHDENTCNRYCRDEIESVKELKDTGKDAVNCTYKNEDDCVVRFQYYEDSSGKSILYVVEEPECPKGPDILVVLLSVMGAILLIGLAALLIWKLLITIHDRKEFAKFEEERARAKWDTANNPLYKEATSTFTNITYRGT

| SMILES | IC50 (GPIIb-IIIa) [µM] | IC50 [1] [µM] |
| --- | --- | --- |
| N=C(N)c1ccc2[nH]c(C(=O)NCc3ccc(CCC(=O)O)cc3)cc2c1 [Example 9] | 4.45 | 40 |
| CCCC(CC1CCC(CNC(=O)c2cc3cc(C(=N)N)ccc3[nH]2)CC1)C(=O)O (stereo not drawn) [Example 11] | > 100 | > 100 |
| N=C(N)c1ccc2[nH]c(C(=O)NCCOCCCC(=O)O)cc2c1 [Example 12] | 1.2 | 9 |
| CC(CCCCCNC(=O)c1cc2cc(C(=N)N)ccc2[nH]1)C(=O)O (stereo not drawn) [Example 13] | 5.25 | 28 |
| CCC(CCCCCNC(=O)c1cc2cc(C(=N)N)ccc2[nH]1)C(=O)O (stereo not drawn) [Example 14] | 21.5 | > 100 |
| CCCCCCC(CCCCCNC(=O)c1cc2cc(C(=N)N)ccc2[nH]1)C(=O)O (stereo not drawn) [Example 16] | 19 | > 100 |
| CC(CCCCNC(=O)c1cc2cc(C(=N)N)ccc2[nH]1)CC(=O)O (stereo not drawn) [Example 17] | 0.21 | 2.7 |
| CCC(CCCCNC(=O)c1cc2cc(C(=N)N)ccc2[nH]1)CC(=O)O (stereo not drawn) [Example 18] | 0.33 | 5.8 |
| CCCCC(CCCCNC(=O)c1cc2cc(C(=N)N)ccc2[nH]1)CC(=O)O (stereo not drawn) [Example 19] | 0.63 | 30 |
| CCCCCCC(CCCCNC(=O)c1cc2cc(C(=N)N)ccc2[nH]1)CC(=O)O (stereo not drawn) [Example 20] | 0.8 | 70 |
| CN(CCCCCCC(=O)O)C(=O)c1cc2cc(C(=N)N)ccc2[nH]1 [Example 21] | 0.38 | 2.5 |
| N=C(N)c1ccc2oc(C(=O)NCCCCCCC(=O)O)cc2c1 [Example 22] | 0.04 | 0.27 |
| N=C(N)c1ccc2sc(C(=O)NCCCCCCC(=O)O)cc2c1 [Example 23] | 0.74 | 9 |
| N=C(N)c1ccc2cc(C(=O)NCCCCCCC(=O)O)[nH]c2c1 [Example 25] | 0.13 | 0.8 |
| N=C(N)c1ccc2[nH]c(C(=O)NCCCCCCC(=O)O)cc2c1 [Example 26] | 0.7 | 2.7 |
| N=C(N)c1ccc2[nH]c(C(=O)NCCCCC(=O)O)cc2c1 [Example 27] | – | 100 |
| N=C(N)c1ccc2[nH]c(C(=O)NCCCCCC(=O)O)cc2c1 [Example 28] | 42.7 | 100 |
| Cn1c(C(=O)NCCCCCCC(=O)O)cc2cc(C(=N)N)ccc21 [Example 30] | 3 | 8 |
| CC(CCCCNC(=O)c1cc2cc(C(=N)N)ccc2s1)CC(=O)O (stereo not drawn) [Example 31] | 0.32 | 3.3 |
| CC(CCCCNC(=O)c1cc2cc(C(=N)N)ccc2o1)CC(=O)O (stereo not drawn) [Example 32] | 0.01 | 0.23 |
| Cc1c(C(=O)NCCCCCCC(=O)O)[nH]c2ccc(C(=N)N)cc12 [Example 33] | 2.6 | 5 |
| N=C(N)c1ccc(COc2ccc3oc(C(=O)NCC(=O)O)cc3c2)cc1 [Example 35] | 3.4 | 100 |
| NCc1ccc2[nH]c(C(=O)NCCCCCCC(=O)O)cc2c1 [Example 36] | 4.23 | 25 |
